Laboratory results reported in US6825340B2, “Methods and reagents for inactivating ribonucleases” (Ambion, Inc., priority 1998, dated 2004).

Experiments:
[1] = tested on: RNase mixture (RNase A, RNase 1, RNase T1); experiment: Non-isotopic RNase inactivation assay (mouse total RNA, agarose gel); assay type: biochemical, human, E. coli and a fungus
Text: The inventors routinely perform assays on RNA designed to assess RNase activity in a sample. Two different assays are typically used for the detection of ribonuclease activity, non-isotopic and isotopic. […] In both assays, the inactivation process is typically performed on a mixture of three different ribonucleases: RNase A, RNase 1, and RNase T1. Each ribonuclease is purified from a different species: […], E. coli and a fungus, respectively. The three RNases are very different from each other in their origin, substrate specificity and protein sequence. In this way, the inactivation process can test three completely different but well characterized ribonucleases. The standard stock RNase mixture employed in the following examples is prepared by combining 1 μl RNase 1 (100 U/μl; Ambion), 1 μl RNase cocktail (RNase A, 0.5 U/μl; RNase T1, 20 U/μl, Ambion) and 98 μl water. The non-isotopic assay uses total RNA isolated from mouse as the substrate for the RNase mixture. […] A quantity of 4 μg of total RNA isolated from mouse liver or brain was dissolved in an aqueous solution, usually water or 1 mM sodium citrate (pH 6.6). The treated ribonuclease sample was added to the total RNA and then incubated at 37° C. for 1 or 16 hours, depending on the sensitivity desired for the assay. After incubation, the RNA was fractionated in a formaldehyde 1% agarose gel. The RNA was detected by staining with ethidium bromide and then illuminating the gel with ultraviolet light. The RNA fluoresces in the gel. Untreated total RNA was also fractionated as a control with the test samples for comparative purposes. […] Intact total RNA has two major bands produced by the 28S and 18S ribosomal RNA. […] The RNase cocktail was made to various concentrations in different buffers in different DTT concentrations and incubated at 37° C. or 60° C. for 20 minutes. Total mouse RNA was added to the treated RNase mixture and incubated at 37° C. for one hour, fractionated in a formaldehyde denaturing 1% agarose gel and the RNA visualized by ethidium bromide staining and UV fluorescence.

[2] = molecular target: T1, T7 RNA polymerase (Escherichia phage T7, UniProt P00573); experiment: In vitro transcription reaction (MAXIscript kit), UTP[α-32P] incorporation; assay type: biochemical; details: 20 mM reducing reagent
T1 construct: purchased Ambion, Inc
Method: (§1) FIG. 3. […] Transcriptions were performed with T7, T3 and SP6 RNA polymerase in the presence and absence of 20 mM DTT. For each RNA polymerase reaction, pTRI-Xef DNA was the template and UTP[α^32P] was included to measure the efficiency of transcription. Duplicates were performed for each reaction. TCA precipitations were performed on each transcription reaction to measure the percent of the UTP[α^32P] incorporated into RNA.
(§2) The transcription reactions were based on the MAXIscript™ transcription kit (Ambion, Inc.). The following were assembled with or without 20 mM reducing reagent in a final volume of 18 μl: NTPs (0.5 mM each), 1 μg linearized DNA template, 2 μl 10 × transcription buffer, and 0.2 μl UTP [α-^32P] (800 Ci/mmol). The reaction mixtures were incubated 60° C. for 10 minutes and then 2 μl of the either SP6, T7 or T3 RNA polymerase (10 units/μl) were added to the reactions, incubated 30° C. for 60 minutes and then TCA precipitated to assess the incorporation of the radioactive label.

[3] = molecular target: T2, SP6 RNA polymerase (Enterobacteria phage SP6, UniProt P06221); experiment: as above; assay type: biochemical; details: 20 mM reducing reagent
T2 construct: purchased Ambion, Inc
T2 sequence (P06221 1-874): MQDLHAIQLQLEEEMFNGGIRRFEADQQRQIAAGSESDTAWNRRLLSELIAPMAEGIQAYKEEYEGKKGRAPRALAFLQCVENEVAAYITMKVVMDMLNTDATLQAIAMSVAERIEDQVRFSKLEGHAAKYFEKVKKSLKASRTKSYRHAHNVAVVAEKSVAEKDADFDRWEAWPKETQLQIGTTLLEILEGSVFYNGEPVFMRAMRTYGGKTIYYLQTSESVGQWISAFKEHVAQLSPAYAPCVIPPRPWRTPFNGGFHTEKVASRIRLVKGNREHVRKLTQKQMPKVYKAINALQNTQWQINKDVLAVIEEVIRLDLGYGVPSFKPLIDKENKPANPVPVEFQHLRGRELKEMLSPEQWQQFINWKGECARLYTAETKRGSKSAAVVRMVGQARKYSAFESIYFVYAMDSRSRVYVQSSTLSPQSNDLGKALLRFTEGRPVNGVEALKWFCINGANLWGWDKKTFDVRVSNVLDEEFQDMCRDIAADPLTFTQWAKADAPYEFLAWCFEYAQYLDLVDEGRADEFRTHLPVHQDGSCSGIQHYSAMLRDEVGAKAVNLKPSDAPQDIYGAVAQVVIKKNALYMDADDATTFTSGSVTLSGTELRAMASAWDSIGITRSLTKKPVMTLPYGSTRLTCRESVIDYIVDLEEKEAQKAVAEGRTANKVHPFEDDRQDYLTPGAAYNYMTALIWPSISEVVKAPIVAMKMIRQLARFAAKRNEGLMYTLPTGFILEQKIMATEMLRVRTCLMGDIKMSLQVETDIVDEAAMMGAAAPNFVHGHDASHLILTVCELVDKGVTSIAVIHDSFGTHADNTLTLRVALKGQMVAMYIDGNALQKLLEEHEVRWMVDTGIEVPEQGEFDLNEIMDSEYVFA
Method: as §1, §2

[4] = molecular target: T3, T3 RNA polymerase (Enterobacteria phage T3, UniProt P07659); experiment: as above; assay type: biochemical; details: 20 mM reducing reagent
T3 construct: purchased Ambion, Inc
Method: as §1, §2

[5] = molecular target: T4, MMLV reverse transcriptase (Moloney murine leukemia virus, UniProt P03355); experiment: Reverse transcription reaction (RETROscript kit), dCTP[α-32P] incorporation; assay type: biochemical; details: 20 mM reducing reagent
T4 construct: purchased Ambion, Inc
Method: (§3) FIG. 2. […] Reverse transcriptions were performed using the RETROscript™ kit (Ambion, Inc.). Mouse total RNA in DEPC-treated water was reverse transcribed with either MMLV or AMV reverse transcriptase in the presence or absence of 20 mM DTT. dCTP[α^32P] was included in the reactions to measure the efficiency of reverse transcription. Following incubation at 42° C. for 1 h, 5 μl of each reaction was subjected to TCA precipitation to measure the amount of dCTP[α^32P] incorporated into cDNA by reverse transcription.
(§4) The reverse transcription reactions were performed using the RETROscript™ kit (Ambion, Inc.). The following were assembled with or without 20 mM of the reducing reagents in a final volume of 19 μl: dNTPs (0.5 mM each), oligo dT (5 μM), 0.4 μl dCTP[α-^32p] (3000 Ci/mmol), 10 mM Tris-HCl (pH 8.3): 50 mM KCl: 1.5 mM MgCl2, mouse brain total RNA (4 μg). The reaction mixtures were incubated at 65° C. for 10 minutes. 1 μl (100 units) of AMV or MMLV reverse transcriptase were added and then the reactions were incubated at 42° C. for 1 hour. Reverse transcription by either enzyme was not inhibited by DTT (FIG. 2) or by DTE or β-mercaptoethanol.

[6] = tested on: AMV reverse transcriptase; experiment: as above; assay type: biochemical; details: 20 mM reducing reagent
Method: as §3, §4

[7] = molecular target: DNase I (Bos taurus, UniProt P00639); experiment: DNase I activity after reducing/heat treatment, plasmid DNA degradation; assay type: biochemical; details: 20 mM reducing reagent in water; DNase I 0.4 units/μl; 60° C. for 20 minutes
Method: DNase I is commonly used to degrade contaminating DNA in RNA preparations. To test whether the inactivation method affected DNase I activity, DNase I (final concentration of 0.4 units/μl) was added to water containing 20 mM DTT, DTE or β-mercaptoethanol. The mixture was incubated at 60° C. for 20 minutes. After the heat treatment, the DNase I activity was tested by incubating the treated DNase I with plasmid DNA (0.2 μg/μl ) at 37° C. for one hour followed by electrophoresis in a 1% agarose gel.

[8] = reducing reagent 20 mM, RNase mixture 200 ng/ml, 60° C. for 20 minutes

Sequence of DNase I (P00639 23-282): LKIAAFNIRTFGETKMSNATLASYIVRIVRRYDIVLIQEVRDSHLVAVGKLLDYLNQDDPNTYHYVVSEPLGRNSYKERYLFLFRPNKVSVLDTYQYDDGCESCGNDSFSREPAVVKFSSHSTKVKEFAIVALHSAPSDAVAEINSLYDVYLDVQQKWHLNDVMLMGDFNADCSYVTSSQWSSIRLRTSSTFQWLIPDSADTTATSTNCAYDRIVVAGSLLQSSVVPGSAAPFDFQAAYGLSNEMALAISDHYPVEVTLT
T3 sequence (P07659 whole entry): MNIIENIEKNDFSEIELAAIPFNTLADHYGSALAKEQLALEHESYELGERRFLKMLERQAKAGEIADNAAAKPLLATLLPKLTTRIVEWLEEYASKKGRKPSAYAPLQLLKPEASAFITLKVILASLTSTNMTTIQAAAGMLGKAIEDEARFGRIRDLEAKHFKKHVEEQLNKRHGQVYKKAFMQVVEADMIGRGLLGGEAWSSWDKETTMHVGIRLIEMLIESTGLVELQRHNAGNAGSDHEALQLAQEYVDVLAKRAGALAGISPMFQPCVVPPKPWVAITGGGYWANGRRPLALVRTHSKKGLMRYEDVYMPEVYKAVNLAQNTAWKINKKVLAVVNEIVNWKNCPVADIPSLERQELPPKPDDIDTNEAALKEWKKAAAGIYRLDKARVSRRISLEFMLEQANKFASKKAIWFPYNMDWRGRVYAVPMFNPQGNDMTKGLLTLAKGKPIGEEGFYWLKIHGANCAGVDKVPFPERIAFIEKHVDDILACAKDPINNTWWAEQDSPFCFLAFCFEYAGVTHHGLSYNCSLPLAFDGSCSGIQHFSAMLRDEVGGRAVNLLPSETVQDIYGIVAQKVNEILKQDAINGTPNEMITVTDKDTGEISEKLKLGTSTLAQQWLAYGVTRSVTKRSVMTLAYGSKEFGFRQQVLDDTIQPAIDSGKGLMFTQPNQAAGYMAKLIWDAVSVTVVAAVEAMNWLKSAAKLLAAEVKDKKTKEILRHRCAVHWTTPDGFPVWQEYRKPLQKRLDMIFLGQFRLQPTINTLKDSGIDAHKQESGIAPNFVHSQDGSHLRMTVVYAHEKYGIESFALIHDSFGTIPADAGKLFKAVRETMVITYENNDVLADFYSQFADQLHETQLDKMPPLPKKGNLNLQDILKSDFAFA
T1 sequence (P00573 whole entry): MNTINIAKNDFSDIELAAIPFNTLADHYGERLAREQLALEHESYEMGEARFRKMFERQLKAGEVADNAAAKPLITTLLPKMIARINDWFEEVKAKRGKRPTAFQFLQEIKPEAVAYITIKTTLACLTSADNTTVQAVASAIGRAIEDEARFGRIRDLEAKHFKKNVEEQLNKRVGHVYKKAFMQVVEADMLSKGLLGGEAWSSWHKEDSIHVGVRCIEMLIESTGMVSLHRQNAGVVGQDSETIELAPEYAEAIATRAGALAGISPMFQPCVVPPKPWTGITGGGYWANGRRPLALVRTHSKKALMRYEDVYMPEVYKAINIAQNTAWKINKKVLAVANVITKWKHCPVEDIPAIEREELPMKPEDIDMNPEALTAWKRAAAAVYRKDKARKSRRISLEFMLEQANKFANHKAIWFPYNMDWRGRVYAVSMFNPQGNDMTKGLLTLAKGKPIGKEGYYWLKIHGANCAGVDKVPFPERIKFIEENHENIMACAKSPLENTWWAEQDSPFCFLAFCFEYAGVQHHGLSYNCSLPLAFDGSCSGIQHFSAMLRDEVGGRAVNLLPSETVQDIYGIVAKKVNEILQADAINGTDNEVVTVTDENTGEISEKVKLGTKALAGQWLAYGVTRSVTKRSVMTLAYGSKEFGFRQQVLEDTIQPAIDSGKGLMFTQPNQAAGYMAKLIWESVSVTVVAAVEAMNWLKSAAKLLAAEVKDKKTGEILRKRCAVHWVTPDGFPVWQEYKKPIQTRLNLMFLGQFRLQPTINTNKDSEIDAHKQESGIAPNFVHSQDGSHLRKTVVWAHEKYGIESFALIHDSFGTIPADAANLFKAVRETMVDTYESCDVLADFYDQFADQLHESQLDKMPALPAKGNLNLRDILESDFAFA

| RNase mixture inactivation ([1]; 10 mM cysteine, RNase mixture 200 ng/ml, 1 mM sodium citrate (pH 6.4), 68° C. for 20 minutes) | RNase mixture inactivation ([1]; 20 mM cysteine, RNase mixture 200 ng/ml, 1 mM sodium citrate (pH 6.4), 68° C. for 20 minutes) | RNase mixture inactivation ([1]; 40 mM cysteine, RNase mixture 200 ng/ml, 1 mM sodium citrate (pH 6.4), 68° C. for 20 minutes) | RNase mixture inactivation ([1]; 60 mM cysteine, RNase mixture 200 ng/ml, 1 mM sodium citrate (pH 6.4), 68° C. for 20 minutes) | RNase mixture inactivation ([1]; heated DTT diluted to 20 mM, RNase mixture 200 ng/ml in water, 60° C. for 20 minutes) | Compound | RNase mixture inactivation [1, 8] | inhibition of T7 RNA polymerase transcription [2] | inhibition of SP6 RNA polymerase transcription [3] | inhibition of T3 RNA polymerase transcription [4] | inhibition of reverse transcription by MMLV reverse transcriptase [5] | inhibition of reverse transcription by AMV reverse transcriptase [6] | DNase I activity after reducing/heat treatment [7] |
| --- | --- | --- | --- | --- | --- | --- | --- | --- | --- | --- | --- | --- |
| – | – | – | – | – | O[C@H](CS)[C@@H](O)CS [DTE, dithioerythritol] | inactivate RNase activity completely | None of the three polymerases were inhibited | None of the three polymerases were inhibited | None of the three polymerases were inhibited | not inhibited | not inhibited | not affected |
| inactivated | inactivated | inactivated | inactivated | – | N[C@@H](CS)C(=O)O [cysteine] | – | – | – | – | – | – | – |
| – | – | – | – | did not inactivate | OC1CSSCC1O (stereo not shown) [oxidized DTT] | – | – | – | – | – | – | – |
| – | – | – | – | – | OCCS [β-mercaptoethanol] | inactivate RNase activity completely | None of the three polymerases were inhibited | None of the three polymerases were inhibited | None of the three polymerases were inhibited | not inhibited | not inhibited | not affected |
